pIC50: −log10 of the molar value. Some results are limits rather than exact numbers.

T1 sequence (Q6ZZZ2 24-269 limits assumed): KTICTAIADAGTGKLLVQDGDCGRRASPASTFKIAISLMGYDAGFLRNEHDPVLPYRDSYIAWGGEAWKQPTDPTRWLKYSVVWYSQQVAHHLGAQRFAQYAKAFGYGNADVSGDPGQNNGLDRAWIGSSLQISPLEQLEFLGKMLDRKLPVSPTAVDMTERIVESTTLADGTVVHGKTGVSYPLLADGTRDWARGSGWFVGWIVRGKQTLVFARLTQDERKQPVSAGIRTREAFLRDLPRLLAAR

One test concerns the target T1, OXA-57 (Burkholderia pseudomallei, UniProt Q6ZZZ2).
Assay: not given
Settings: not given
What is called Ki is a measure of affinity in units of concentration, obtained from inhibition or displacement. Low readings indicate a stronger hold on the target, high ones a looser hold on the target. As for `CC(=O)OCC1=C(C(=O)O)N2C(=O)[C@@H](NC(=O)Cc3cccs3)[C@H]2SC1` [Cephalothin], the Ki was 405 ± 97 µM.
The same measure, in the same setting: as for `C[C@@H](O)[C@H]1C(=O)N2C(C(=O)O)=C(SCCN=CN)C[C@H]12` [Imipenem], the figure is 265 ± 79 µM; as for `C[C@@H](O)[C@H]1C(=O)N2C(C(=O)O)=C(S[C@@H]3CN[C@H](C(=O)N(C)C)C3)[C@H](C)[C@H]12` [Meropenem], 646 ± 355 µM.

Another test concerns the target T1, OXA-57. Kind of test: biochemical.
Settings: not given
What is called pIC50 is −log10 of the IC50, conventionally taken in molar units. For `C[C@H]1[C@H](NC(=O)/C(=N\OC(C)(C)C(=O)O)c2csc(N)n2)C(=O)N1S(=O)(=O)O` [Aztreonam], the pIC50 is < 2.40.
Still for that read-out and setting: in the case of `CO/N=C(\C(=O)N[C@@H]1C(=O)N2C(C(=O)O)=C(COC(C)=O)CS[C@H]12)c1csc(N)n1` [Cefotaxime] it was < 2.40; in that of `CC(C)(O/N=C(\C(=O)N[C@@H]1C(=O)N2C(C(=O)[O-])=C(C[n+]3ccccc3)CS[C@H]12)c1csc(N)n1)C(=O)O` [Ceftazidime], < 2.40.
`O=C(O)[C@H]1/C(=C/CO)O[C@@H]2CC(=O)N21` [Clavulanate] gave a pIC50 of 5.03.
On the same count and under the same terms, as for `O=C(O)C[C@@H]1CC[C@H](NC(=O)Cc2cccs2)B(O)O1` [Vaborbactam], the figure is < 2.40.

The next test concerns the target T1, OXA-57. Kind of test: biochemical. To be noted: pIC50.
The molecule `O=C(O)[C@H]1/C(=C/CO)O[C@@H]2CC(=O)N21` [Clavulanate] showed a pIC50 of 4.90.

The values above are taken from publication doi:10.1101/2024.12.23.630153v1 (biorxiv, 2024).
